Experimental findings from patent publication US20230365571A1, “COMPOUNDS AND COMPOSITIONS AS Sppl2a INHIBITORS” (Novartis AG, priority 2020, published 2023) are described below.

Common to all, as to format: cell-based
For one test, the target named is T1, Sppl2a CD74 (Mus musculus, UniProt Q9JJF9).
T1 construct: Mouse whole blood Balb/c mice (sodium citrate) was ordered by Bioreclamation LLC; tissue Bioreclamation LLC
T1 sequence (Q9JJF9 26-523): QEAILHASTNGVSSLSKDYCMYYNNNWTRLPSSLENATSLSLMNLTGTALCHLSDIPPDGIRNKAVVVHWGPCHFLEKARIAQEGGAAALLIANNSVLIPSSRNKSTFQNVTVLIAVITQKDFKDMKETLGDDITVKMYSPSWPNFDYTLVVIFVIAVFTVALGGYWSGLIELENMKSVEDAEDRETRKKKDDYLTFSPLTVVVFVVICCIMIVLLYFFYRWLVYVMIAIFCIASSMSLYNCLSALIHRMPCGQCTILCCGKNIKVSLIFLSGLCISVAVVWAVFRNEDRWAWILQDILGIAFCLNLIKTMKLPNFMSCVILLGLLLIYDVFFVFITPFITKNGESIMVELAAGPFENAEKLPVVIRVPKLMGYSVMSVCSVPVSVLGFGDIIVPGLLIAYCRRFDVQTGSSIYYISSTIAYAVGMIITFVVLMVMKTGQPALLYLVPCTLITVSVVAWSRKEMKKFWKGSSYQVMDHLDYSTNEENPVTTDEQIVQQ
Nature of the test: CD74/p8 mouse whole blood assay, flow cytometry format. Conditions: Balb/c mouse whole blood, 5 h, CD74 signal on gated live B cells. As for the experimental part: CD74/p8 Mouse Whole Blood Assay: Flow Cytometry Format
Mouse whole blood Balb/c mice (sodium citrate) was ordered by Bioreclamation LLC; USA. The blood was used the next day upon receipt (stored at 4° C.). 100 μL blood were transferred in 96 well format plate, where compounds, an 11 point dilutions down from 30 μM, to be tested were previously deposited. The plate was incubated for 5 h in the incubator at 37° C., 5% CO2 under continuous motion. After the incubation the blood was diluted with RBC Lysis Buffer (Amined; Cat. Nr 3-13F00-H or BD; Cat. Nr 555899). The solution was mixed by pipetting and incubated 10 min in the 37° C. incubator. The white blood cells were sedimented for 3 min at 2000 rpm. After removing the supernatant the cell pellet was resuspended and washed twice in RCB Buffer and kept≈ 5 min at room temperature, followed by a centrifugation for 2 min at 2000 rpm. The cell pellet was then resuspend in D-PBS and centrifuged twice. Finally, the cells were taken up in of D-PBS/0.5% inactivated fetal bovine serum/2 mM EDTA. The cell suspension was treated with Live/Dead fixable stain (Life Technologies, >470 nm version), B cells were identified by surface staining with an anti-B220 antibody coupled to APC fluorofor. After staining, the cells were extensively washed with PBS. The cells were permeabilized and fixed in FACS lysing buffer; (BD; #349202, dil 1:10 in water) and labelled with an anti CD74, FITC labelled antibody, washed once more with diluted FACS lysing buffer and spin down. The cell pellet was washed with D-PBS/0.5% inactivated fetal bovine serum/2 mM EDTA and PBS prior to the analysis in a flow cytometer. The compound concentrations were plotted against the intensity (medium fluorescence intensity) of the CD74 signal on the gated life B cell and IC50 were determined by fitting data for a 11 concentrations dose response.
(In general: In flow cytometry, cells or beads pass a laser one at a time.)

Test [1] has as its target T2, human SPPL2a (Homo sapiens, UniProt Q8TCT8).
T2 sequence (Q8TCT8 26-520): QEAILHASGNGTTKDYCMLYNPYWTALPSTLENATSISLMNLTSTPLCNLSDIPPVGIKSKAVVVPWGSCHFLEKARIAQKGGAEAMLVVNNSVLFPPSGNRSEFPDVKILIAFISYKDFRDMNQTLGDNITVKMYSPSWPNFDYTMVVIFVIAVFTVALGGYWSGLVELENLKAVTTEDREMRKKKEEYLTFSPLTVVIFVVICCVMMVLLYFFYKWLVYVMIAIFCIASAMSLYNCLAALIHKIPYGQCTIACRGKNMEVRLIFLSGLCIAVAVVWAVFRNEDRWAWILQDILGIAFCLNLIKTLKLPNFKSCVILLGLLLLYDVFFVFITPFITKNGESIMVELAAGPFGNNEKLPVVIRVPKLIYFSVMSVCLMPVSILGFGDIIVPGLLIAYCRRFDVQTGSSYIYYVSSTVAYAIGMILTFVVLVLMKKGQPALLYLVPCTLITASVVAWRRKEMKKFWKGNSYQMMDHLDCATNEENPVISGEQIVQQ
Briefly: Sppl2a TL (translocation) imaging assay in U-2 OS cells. Set-up: expressed in transfected cells. The note with it: U-2 OS cells expressing human SPPL2a and EGFP-TNFα(aa1-76) NTF substrate; 24 h. In outline:
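U-2 OS cells stably expressing human SPPL2a plus doxycycline-induced EGFP-TNFα(aa1-76) NTF, treated 24 h at 37 °C with inhibitor (100 μM–1 nM, 11 points, 0.9% DMSO, 5 μg/mL doxycycline). Imaging of nuclear-minus-cytoplasmic EGFP intensity; % inhibition versus 0.5 μM LY-411,575 and DMSO, IC50 by nonlinear regression; CC50 from cell count.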

Test [2] deals with T2, human SPPL2a. Nature of the test: Sppl2a RGA (reporter gene assay) in HEK293 cells. Details: expressed in transfected cells; host or cells: HEK293 (transient). The note with it: NT-TNF-VP16-Gal4 substrate, Gal4-luciferase reporter, 24 h. A digest of the protocol: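 Cleavage of a membrane-bound TNF N-terminal–VP16-Gal4 substrate drives Gal4-luciferase expression in transiently transfected HEK293 cells also expressing human SPPL2a. Compounds incubated 24 h, 37 °C, 5% CO2; luminescence read, normalized and plotted against concentration for IC50.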

SMILES strings stand for the structures.

One may read the IC50 as the midpoint of a concentration-inhibition curve. A high value points to a need for much substance. In the case of `Cc1nc(C(=O)NC(C)C)sc1C(=O)NC[C@@H](C)C(=O)N[C@@H]1C(=O)N2CCCN2Cc2ccccc21` [Example 24, N^2-Isopropyl-4-methyl-N^5-((R)-2-methyl-3-oxo-3-(((S)-11-oxo-2,3,10,11-tetrahydro-1H,5H-benzo[d]pyrazolo [1,2-a][1,2]diazepin-10-yl)amino)propyl) thiazole-2,5-dicarboxamide], the concentration for half-maximal inhibition (IC50) against Sppl2a CD74 turned out to be 1660 nM; against human SPPL2a [1] it was 21 nM; at human SPPL2a [2], 33 nM.
With `CC[C@H](CNC(=O)c1onc(C)c1C)C(=O)N[C@@H]1C(=O)N2CCCN2Cc2ccccc21` [Example 25, 3,4-Dimethyl-N-((R)-2-(((S)-11-oxo-2,3,10,11-tetrahydro-1H,5H-benzo[d]pyrazolo [1,2-a][1,2]diazepin-10-yl)carbamoyl)butyl) isoxazole-5-carboxamide], the IC50 is 420 nM at Sppl2a CD74, 24 nM at human SPPL2a [1] and 9 nM on human SPPL2a [2].
`CC[C@H](CNC(=O)c1sc(C2=CCOCC2)nc1C)C(=O)N[C@@H]1C(=O)N2CCCN2Cc2ccccc21` [Example 26, 2-(3,6-Dihydro-2H-pyran-4-yl)-4-methyl-N-((R)-2-(((S)-11-oxo-2,3,10,11-tetrahydro-1H,5H-benzo[d]pyrazolo [1,2-a][1,2]diazepin-10-yl)carbamoyl)butyl) thiazole-5-carboxamide]: the concentration for half-maximal inhibition (IC50) on Sppl2a CD74 is 2230 nM; against human SPPL2a [1], 25 nM; at human SPPL2a [2], 101 nM.
On to `Cc1nc(C(=O)NC(C)C)sc1C(=O)NC[C@H](C(=O)N[C@@H]1C(=O)N2CCCN2Cc2ccccc21)C1CC1` [Example 27, N^5-((R)-2-Cyclopropyl-3-oxo-3-(((S)-11-oxo-2,3,10,11-tetrahydro-1H,5H-benzo[d]pyrazolo [1,2-a][1,2]diazepin-10-yl)amino)propyl)-N^2-isopropyl-4-methylthiazole-2,5-dicarboxamide], for which the 50% inhibitory concentration (IC50) was 947 nM against Sppl2a CD74, 26 nM against human SPPL2a [1] and 5 nM against human SPPL2a [2].
On the same counts, the results for `CC[C@H](CNC(=O)c1sc(-c2ccno2)nc1C)C(=O)N[C@@H]1C(=O)N2CCCN2Cc2ccccc21` [Example 32, 2-(Isoxazol-5-yl)-4-methyl-N-((R)-2-(((S)-11-oxo-2,3,10,11-tetrahydro-1H,5H-benzo[d]pyrazolo [1,2-a][1,2]diazepin-10-yl)carbamoyl)butyl) thiazole-5-carboxamide] are 174 nM, 37 nM and 10 nM.
Regarding `COCC[C@H](CNC(=O)c1sc(-c2cc(C)no2)nc1C)C(=O)N[C@@H]1C(=O)N2CCCN2Cc2ccccc21` [Example 42, N-((R)-4-Methoxy-2-(((S)-11-oxo-2,3,10,11-tetrahydro-1H,5H-benzo[d]pyrazolo [1,2-a][1,2]diazepin-10-yl)carbamoyl)butyl)-4-methyl-2-(3-methylisoxazol-5-yl)thiazole-5-carboxamide], the IC50 was determined as 847 nM against Sppl2a CD74, 62 nM against human SPPL2a [1] and 27 nM on human SPPL2a [2].
With `C[C@H](CNC(=O)c1sc(C2CC2)nc1Cl)C(=O)N[C@@H]1C(=O)N2CCCN2Cc2ccccc21` [Example 43, 4-Chloro-2-cyclopropyl-N-((R)-2-methyl-3-oxo-3-(((S)-11-oxo-2,3,10,11-tetrahydro-1H,5H-benzo[d]pyrazolo [1,2-a][1,2]diazepin-10-yl)amino)propyl) thiazole-5-carboxamide], the half-inhibitory concentration (IC50) at Sppl2a CD74 came to 1740 nM; at human SPPL2a [1], 63 nM; against human SPPL2a [2] it was 104 nM.
Turning to `CC[C@H](CNC(=O)c1sc(-c2cnn(C(F)F)c2)nc1Cl)C(=O)N[C@@H]1C(=O)N2CC3(CC3)CN2C(=O)c2ccccc21` [Example 45, 4-Chloro-2-(1-(difluoromethyl)-1H-pyrazol-4-yl)-N-((R)-2-(((S)-5,11-dioxo-10,11-dihydro-1H,3H,5H-spiro[benzo[d]pyr-azolo[1,2-a][1,2]diazepine-2,1′-cyclopropan]-10-yl)carbamoyl)butyl) thiazole-5-carboxamide], the IC50 on Sppl2a CD74 came to 2510 nM; against human SPPL2a [1], 78 nM; against human SPPL2a [2] it was 86 nM.
Consider `CC[C@H](CNC(=O)c1sc(C2=CCOCC2)nc1Cl)C(=O)N[C@@H]1C(=O)N2CCCN2Cc2ccccc21` [Example 46, 4-Chloro-2-(3,6-dihydro-2H-pyran-4-yl)-N-((R)-2-(((S)-11-oxo-2,3,10,11-tetrahydro-1H,5H-benzo[d]pyrazolo [1,2-a][1,2]diazepin-10-yl)carbamoyl)butyl) thiazole-5-carboxamide], for which the IC50 at Sppl2a CD74 came out at 2680 nM; against human SPPL2a [1], 79 nM; at human SPPL2a [2], 54 nM.
`CC[C@H](CNC(=O)c1sc(C2CC2)nc1C)C(=O)N[C@@H]1C(=O)N2CCCN2Cc2ccccc21` [Example 47, 2-Cyclopropyl-4-methyl-N-((R)-2-(((S)-11-oxo-2,3,10,11-tetrahydro-1H,5H-benzo[d]pyrazolo [1,2-a][1,2]diazepin-10-yl)carbamoyl)butyl) thiazole-5-carboxamide]: the figures for the IC50 against Sppl2a CD74, against human SPPL2a [1] and on human SPPL2a [2] were 741 nM, 83 nM and 41 nM, respectively.
Turning to `Cc1nc(C2CCOCC2)sc1C(=O)NC[C@H](C(=O)N[C@@H]1C(=O)N2CCCN2Cc2ccccc21)C(F)(F)F` [Example 50, 4-Methyl-2-(tetrahydro-2H-pyran-4-yl)-N-((R)-3,3,3-trifluoro-2-(((S)-11-oxo-2,3,10,11-tetrahydro-1H,5H-benzo[d]pyrazolo [1,2-a][1,2]diazepin-10-yl)carbamoyl)pro-pyl)thiazole-5-carboxamide], the IC50 stood at 1390 nM against Sppl2a CD74, 97 nM against human SPPL2a [1] and 90 nM against human SPPL2a [2].
Consider `COCc1nc(C)c(C(=O)NC[C@H](C(=O)N[C@@H]2C(=O)N3CCCN3Cc3ccccc32)C(F)(F)F)s1` [Example 52, 2-(Methoxymethyl)-4-methyl-N-((R)-3,3,3-trifluoro-2-(((S)-11-oxo-2,3,10,11-tetrahydro-1H,5H-benzo[d]pyrazolo [1,2-a][1,2]diazepin-10-yl)carbamoyl)pro-pyl)thiazole-5-carboxamide], for which the concentration for half-maximal inhibition (IC50) was 148 nM on Sppl2a CD74, 118 nM on human SPPL2a [1] and 30 nM against human SPPL2a [2].
On to `CCOc1nc(C)c(C(=O)NC[C@@H](CC)C(=O)N[C@@H]2C(=O)N3CCCN3Cc3ccccc32)s1` [Example 53, 2-Ethoxy-4-methyl-N-((R)-2-(((S)-11-oxo-2,3,10,11-tetrahydro-1H,5H-benzo[d]pyrazolo [1,2-a][1,2]diazepin-10-yl)carbamoyl)butyl) thiazole-5-carboxamide], for which the IC50 against Sppl2a CD74 turned out to be 279 nM; on human SPPL2a [1], 125 nM; on human SPPL2a [2], 22 nM.
